System: MCF-7 xenograft tumours
Assay: MCF-7/tRXRα xenograft tumours, western blotting
Assay type: in vivo, nude mice
Details: MCF-7/tRXRα tumour; K-80003 20 mg kg^−1 i.p., 12 days
Procedure: Proteins or cell lysates were electrophoresed by SDS-PAGE gel and transferred to polyvinylidene difluoride (PVDF) membrane. The membranes were blocked with 5% skimmed milk in TBST (50 mM Tris-HCl (pH 7.4), 150 mM NaCl and 0.1% Tween20) for 1 h, then incubated with primary antibodies and secondary antibodies and detected using ECL system (Thermo). The dilutions of the primary antibodies were anti-RXRα (ΔN197, Santa Cruz) in 1:1,000, anti-PARP (H-250, Santa Cruz) in 1:3,000, anti-p85α (Millipore) in 1:1,000, anti-p-AKT (D9E, Cell Signaling Technology) in 1:1000, anti-AKT1/2/3 (H-136, Santa Cruz) in 1:1,000, anti-β-actin (Sigma) in 1:5,000, anti-c-myc (9E10, Santa Cruz) in 1:3,000, anti-HA (F-7, Santa Cruz) in 1:3,000, anti-Flag (F1804, Sigma) in 1:3,000. Images of all uncropped western blots can be found in Supplementary Figs 10–14.
For nude mice xenograft study, Myc-RXRα and Myc-tRXRα cloned into pcdna3.0 vector were stably transfected into MCF-7 cells, and the resulting stable clones and control clone (2 × 10^6 cells in 100 μl) were injected subcutaneously into nude mice (BALB/c, SPF grade, 16–18 g, 4–5-week old). For drug treatment, mice were intraperitoneally injected (i.p.) daily with K-80003 (20 mg kg^−1) diluted in Tween-80 or vehicle (tween-80). Body weight and tumour size were measured every 2 days. […]

SMILES: CC1=C(CC(=O)O)c2cc(F)ccc2/C1=C\c1ccc(C(C)C)cc1 [K-80003]
- AKT activation in tumours: reduced AKT activation
- PARP cleavage in tumours: enhanced PARP cleavage

Reference: PMC5520057, “Modulation of nongenomic activation of PI3K signalling by tetramerization of N-terminally-cleaved RXRα” (Nature Communications, 2017)
